We go through one substance from patent US8476408B2, “Unacylated ghrelin and analogs as therapeutic agents for vascular remodeling in diabetic patients and treatment of cardiovascular disease” (Alize Pharma SAS, priority 2008, dated 2013).

In one test the target is GHSR-1a (Homo sapiens, UniProt Q92847). To be noted: cited from earlier work.
For another test, the system named is HIT-T15 β-cells. Description: Survival of cytokine-treated HIT-T15 β-cells (MTT). Format: cell-based. To be noted: cytokines (IFN-γ/TNF-α/IL-1β), peptides 1 nM to 100 nM. How it is done:
The survival effect of UAG (6-13) (SEQ ID NO: 6), UAG (8-13) (SEQ ID NO: 7), UAG (8-12) (SEQ ID NO: 8), UAG (8-11) (SEQ ID NO: 12), UAG (9-12) (SEQ ID NO: 9) and UAG (9-11) (SEQ ID NO: 10) was assessed in cytokine-treated HIT-T15 β-cells. […] The protective effects of peptides UAG (8-13) (SEQ ID NO: 7) and UAG (8-12) (SEQ ID NO: 8) were found similar to those of UAG (1-14) (SEQ ID NO: 2) and UAG (1-18) (SEQ ID NO: 3). A peptide made of the inverse sequence of UAG (1-14) (SEQ ID NO: 2) and named UAG (14-1) (SEQ ID NO: 11), was used as negative control for these experiments. […] These effects were however lower than those of UAG (6-13) (SEQ ID NO: 6).

Test [1] has as its system CAC. Kind of test: CAC mobilization assay in diabetic and control mice. In kind it is in vivo. Conditions: FIG. 4B. How it is done: Diabetic and control mice—Mice were divided in four groups. The plasma glucose and insulin determination for each group are reported. Sixteen 6 weeks old ob/ob mice (blood glucose, 600±45 mg/dL, insulin, 5.5±0.9 ng/ml); sixteen C56BL6/J wild type mice (blood glucose, 150±18.2 mg/dL, insulin, 1±0.05 ng/ml); ten 7 weeks old NOD/SCID mice (blood glucose, 164±12.9 mg/dL, insulin 1.2±0.12 ng/ml); ten 17 weeks old NOD/SCID mice (blood glucose, 536±36.3 mg/dL, insulin 4.85±0.74 ng/ml). Animal procedures conformed to the Guide for Care and Use of […] (National Institutes of Health publication no. 93-23, revised 1985).
Isolation and Culture of CAC from C57BU6J, C57BL/6J ob/ob mice and NOD/SCID mice—6 weeks old C57BL/6J (wt) and ob/ob mice, 7 and 17 weeks old NOD/SCID mice were purchased from Charles River Lab (Lecco, Italy). Animals were anesthetized by intraperitoneal injection with Avertin (100 mg/50ml ip). Blood samples were drawn from left ventricular, as described by Hoff (Ref. 27). Peripheral blood MNC were isolated by Ficoll density-gradient centrifugation. […]
Mobilization assay—Mice were treated for 12 hours with UAG or saline. CAC recovered and purified as above described, were put in culture and counted by three independent investigators. The technical ratio of CAC was calculated by comparing the numbers of CAC/μL of blood drawn from left ventricular.

Test [2] relates to CAC. Description: Matrigel-plug assay of de novo vessel formation by CAC from treated diabetic patients. Format: in vivo, SCID mice. How it is done:
Matrigel-plug assay—For murine angiogenesis assay, untreated or UAG-treated CAC, obtained from type 2 diabetic patients, were counted and resuspended in DMEM (4×10^6 in 250 μL DMEM). Cells were chilled in ice, labelled with fluorescent dye carboxyfluorescein diacetate succinimidyl ester (CSFE, Molecular Probes), added to 250 μL Matrigel containing of IL-3 (100 ng/ml) at 4° C., and injected sc. in the abdominal paramedian region of 7 week old NOD/SCID mice (5 mice per group). After 15 days, mice were killed and Matrigel plugs were recovered, fixed in 10% buffered formalin and embedded in paraffin for immunohistochemistry.
Immunohistochemistry and immunofluorescence—For immunohistochemistry, sections from paraffin-embedded blocks of Matrigel plugs were collected onto poly-lysine-coated slides. Endogenous peroxidase activity was blocked with 6% H2O2 for 8 minutes at room temperature. To detect cells labelled with fluorescent dye CSFE, anti-Fluorescein/Oregon Green polyclonal Abs (Molecular Probes) were applied to slides overnight at 4° C. […] The percentage of positive cells was counted in 4 non-sequential sections for each experiment at ×40 magnification. […] The number of MHC II or HLA I positive vessels was determined by counting 10 randomly selected fields in three different samples.

Where no end group is shown, it is not given here.

Chain of GHSR-1a (Q92847 whole entry): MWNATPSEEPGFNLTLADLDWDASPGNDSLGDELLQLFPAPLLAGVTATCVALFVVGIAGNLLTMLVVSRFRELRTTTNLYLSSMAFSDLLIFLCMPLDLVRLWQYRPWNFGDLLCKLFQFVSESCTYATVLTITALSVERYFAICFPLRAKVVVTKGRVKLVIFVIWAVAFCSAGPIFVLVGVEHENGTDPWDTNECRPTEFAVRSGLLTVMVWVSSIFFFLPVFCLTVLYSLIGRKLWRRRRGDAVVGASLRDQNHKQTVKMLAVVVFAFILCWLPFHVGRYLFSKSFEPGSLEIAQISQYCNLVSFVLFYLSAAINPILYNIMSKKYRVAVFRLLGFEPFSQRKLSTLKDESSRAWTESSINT

For the substance “1-NH2Gly-Ser-Ser-Phe-Leu-Ser-Pro-Glu-His-Gln-Arg-Val-Gln-Gln-Arg-Lys-Glu-Ser-Lys-Lys-Pro-Pro-Ala-Lys-Leu-Gln-Pro-Arg-28 (GSSFLSPEHQRVQQRKESKKPPAKLQPR; ends and bridges not checked; listed as Homo sapiens) [UAG]”, the “binding to GHSR-1a” value with GHSR-1a is given as “fails to bind GHSR-1a”. The “survival effect on cytokine-induced cell death” value in the test on HIT-T15 β-cells is “comparable”. Moreover, the “percentage of recovered cells” value in the test with CAC [1] (diabetic NOD/SCID mice) is “increase the percentage of recovered cells”. Moreover, the “number of recovered cells relative to untreated wild type mice” value in the test with CAC [1] (ob/ob mice) is “fully restores the number of CAC to normal physiological levels”. Besides, the “formation of functional vessels by labelled CAC” value with CAC [2] (CAC from UAG-treated diabetic patients, Matrigel plugs with IL-3, 15 days, FIG. 4E) is listed as “formed functional vessels”. Besides, the “origin of neo-vessels (human HLA Class I vs mouse MHC II)” value in the test with CAC [2] (immunofluorescence of Matrigel plugs, FIG. 4F) is reported as “majority of vessels are lined by human HLA Class I positive cells”.
